For the assay, the system named is SARS-CoV-2. As to the kind of experiment: microbe, parasite or virus in culture. To be noted: Severe acute respiratory syndrome coronavirus 2, Vero C1008, 48 h.

The source of these data is ChEMBL document CHEMBL4651402, “Screening of ~5500 FDA-approved drugs and clinical candidates for anti-SARS-CoV-2 activity” (2021).

Compound `CN(C)CCC=C1c2ccccc2C(C)(C)c2ccccc21` returned an IC50 greater than 20 µM. Also, the IC50 (read-out: pIC50 (converted)) is greater than 20 µM.
In turn, `CC12CCC3C(CC[C@H]4CC(O)CCC34C)C1CCC2O` (stereo partly drawn) yielded an IC50 greater than 20 µM. Besides, the IC50 (read-out: pIC50 (converted)) is greater than 20 µM.
Compound `CN[C@@H]1[C@@H](O[C@H]2O[C@H](CO)[C@@H](N)[C@H](O)[C@H]2O)O[C@H]2C[C@@H](N)[C@@H](O[C@H]3[C@H](O)[C@@H](O)[C@H](N)C[C@@H]3N)O[C@@H]2[C@@H]1O` came in with an IC50 greater than 20 µM. For the same compound, for the setting “read-out: pIC50 (converted)”, the IC50 was greater than 20 µM.
Consider `O=S(=O)(O)CCN1CCN(CCO)CC1`, for which the IC50 was greater than 20 µM. Moreover, the IC50 (read-out: pIC50 (converted)) was greater than 20 µM.
Take `CN(C)CCCSC(=N)N`: the IC50 was greater than 20 µM. Moreover, the IC50 (read-out: pIC50 (converted)) is greater than 20 µM.
With `O=C(O)/C=C/c1c[nH]cn1`, the IC50 is greater than 20 µM. Moreover, where the note is “read-out: pIC50 (converted)”, the IC50 was greater than 20 µM.
`CNS(=O)(=O)Cc1ccc2[nH]cc(CCN(C)C)c2c1` came in with an IC50 greater than 20 µM. Besides, for the setting “read-out: pIC50 (converted)”, the IC50 was greater than 20 µM.
Regarding `O=C(O)C1CCc2cc(C3CCCCC3)c(Cl)cc21` (stereo not drawn), the IC50 is greater than 20 µM. Where the note is “read-out: pIC50 (converted)”, the IC50 is greater than 20 µM.
Compound `COc1cc2c(cc1O)CC1c3c(cc(O)c(OC)c3-2)CCN1C` (stereo not drawn) displayed an IC50 greater than 20 µM. Under “read-out: pIC50 (converted)”, the IC50 is greater than 20 µM.
Compound `CN1CCCCC1c1ccc(-c2cccnc2)nc1` (stereo not drawn) displayed an IC50 greater than 20 µM. Moreover, the IC50 (read-out: pIC50 (converted)) is greater than 20 µM.
`c1ccc2[nH]c(-c3nc4ccccc4[nH]3)nc2c1` registered an IC50 greater than 20 µM. For the same compound, the IC50 (read-out: pIC50 (converted)) was greater than 20 µM.
Regarding `CC(=O)O[C@@]12CO[C@@H]1C[C@H](O)[C@@]1(C)C(=O)[C@H](O)C3=C(C)[C@@H](OC(=O)[C@H](O)[C@@H](NC(=O)OC(C)(C)C)c4ccccc4)C[C@](O)([C@@H](OC(=O)c4ccccc4)[C@H]21)C3(C)C`, the IC50 was greater than 20 µM. The IC50 (read-out: pIC50 (converted)) was greater than 20 µM.
With `CN1N=C(N)c2cn(C3OC(COP(=O)(O)O)C(O)C3O)c3ncnc1c23` (stereo not drawn), the IC50 was greater than 20 µM. The IC50 (read-out: pIC50 (converted)) is greater than 20 µM.
Regarding `CC1(C)CN2C(=O)c3[nH]cnc3N(Cc3ccc(Cl)cc3)C2=N1`, the IC50 is greater than 20 µM. Besides, the IC50 (read-out: pIC50 (converted)) is greater than 20 µM.
As for `COC(=O)C1=COC(C)C2C[n+]3ccc4c([nH]c5ccccc54)c3CC12` (stereo not drawn), the IC50 was greater than 20 µM. For the same compound, the IC50 (read-out: pIC50 (converted)) was greater than 20 µM.
Compound `CC1C(=O)OC2C(O)C34C5CC(C(C)(C)C)C36C(OC(=O)C6O)OC4(C(=O)O5)C12O` (stereo not drawn) gave an IC50 greater than 20 µM. Further, the IC50 (read-out: pIC50 (converted)) was greater than 20 µM.
For `CN[C@H](Cc1ccccc1)C(=O)N1CCC[C@H]1C(=O)N[C@H](C=O)CCCNC(=N)N`, the IC50 was greater than 20 µM. Further, for the setting “read-out: pIC50 (converted)”, the IC50 was greater than 20 µM.
In turn, `CCC(=O)OC1(c2ccccc2)CCN(C)CC1` had an IC50 greater than 20 µM. In addition, the IC50 (read-out: pIC50 (converted)) was greater than 20 µM.
In the case of `CNCC(O)c1cccc(O)c1` (stereo not drawn), the IC50 was greater than 20 µM. The IC50 (read-out: pIC50 (converted)) is greater than 20 µM.
As for `COc1ccnc2[nH]cc(C(=O)C(=O)N3CCN(C(=O)c4ccccc4)C[C@H]3C)c12`, the IC50 was greater than 20 µM. Further, where the note is “read-out: pIC50 (converted)”, the IC50 was greater than 20 µM.
For the compound `CN(c1nc2ccccc2s1)C1CCN(C[C@@H](O)COc2ccc(F)c(F)c2)CC1`, the IC50 is greater than 20 µM. In addition, the IC50 (read-out: pIC50 (converted)) is greater than 20 µM.
Turning to `OC[C@H]1O[C@H](O)[C@@H](O)[C@@H](O)[C@@H]1O`, the IC50 was greater than 20 µM. Further, the IC50 (read-out: pIC50 (converted)) was greater than 20 µM.
`CNc1cccc(NC(=O)NC2N=C(c3ccccn3)c3ccccc3N(CC(=O)C(C)(C)C)C2=O)c1` (stereo not drawn) returned an IC50 greater than 20 µM. Moreover, under “read-out: pIC50 (converted)”, the IC50 was greater than 20 µM.
Compound `CCC(=O)c1ccc(OCC(O)CN2CCN(c3ccccc3)CC2)cc1` (stereo not drawn) showed an IC50 greater than 20 µM. The IC50 (read-out: pIC50 (converted)) was greater than 20 µM.
`O=C(O)CCCNC(=O)c1cccnc1` gave an IC50 greater than 20 µM. The IC50 (read-out: pIC50 (converted)) was greater than 20 µM.
`CC(C)C(C)/C=C/C(C)C1CCC2C3=CC=C4CC(O)CCC4(C)[C@H]3CCC21C` (stereo partly drawn) yielded an IC50 greater than 20 µM. The IC50 (read-out: pIC50 (converted)) is greater than 20 µM.
Compound `CCC(=O)Nc1c(C)cc(C(=O)N2CCC(N(C)CCc3ccccc3)CC2)cc1C` yielded an IC50 greater than 20 µM. In addition, for the setting “read-out: pIC50 (converted)”, the IC50 was greater than 20 µM.
As to `CC(=O)C1CCC2C3CC[C@H]4C[C@H](O)CCC4(C)C3C(=O)CC12C` (stereo partly drawn), the IC50 was greater than 20 µM. Besides, the IC50 (read-out: pIC50 (converted)) was greater than 20 µM.
Take `CCN(CC)CCOC(=O)C(c1ccccc1)C1(O)CCCC1` (stereo not drawn): the IC50 is greater than 20 µM. Besides, the IC50 (read-out: pIC50 (converted)) was greater than 20 µM.
`CCn1c(=O)n(CCCN2CCN(c3cccc(Cl)c3)CC2)n[13c]1[13CH2][13CH3]` yielded an IC50 greater than 20 µM. Also, the IC50 (read-out: pIC50 (converted)) is greater than 20 µM.
As to `CC1(C)SC2C(/N=C/N3CCCCCC3)C(=O)N2C1C(=O)O` (stereo not drawn), the IC50 was greater than 20 µM. The IC50 (read-out: pIC50 (converted)) was greater than 20 µM.
For the compound `CC(=O)/C=C(\C)NCCN/C(C)=C/C(C)=O`, the IC50 is greater than 20 µM. Further, for the setting “read-out: pIC50 (converted)”, the IC50 is greater than 20 µM.
For the compound `CC(=O)OCC(=O)C12N=C(C)OC1CC1C3CCC4=CC(=O)C=CC4(C)C3(F)C(O)CC12C` (stereo not drawn), the IC50 is greater than 20 µM. Under “read-out: pIC50 (converted)”, the IC50 was greater than 20 µM.
`CC1=CC(=O)C2=C(C)CCC3[C@H](C)C(=O)O[C@@H]3[C@@H]12` (stereo partly drawn) displayed an IC50 greater than 20 µM. In addition, the IC50 (read-out: pIC50 (converted)) is greater than 20 µM.
In turn, `CCN(CC)CC(=O)OCC(=O)C1(O)CCC2C3CCC4=CC(=O)CCC4(C)C3C(O)CC21C` (stereo not drawn) registered an IC50 greater than 20 µM. For the same compound, for the setting “read-out: pIC50 (converted)”, the IC50 was greater than 20 µM.
As to `CC(C)CCCC(C)C1CCC2C3C(=O)C=C4CC(O)CCC4(C)C3CCC12C` (stereo not drawn), the IC50 is greater than 20 µM. Besides, where the note is “read-out: pIC50 (converted)”, the IC50 is greater than 20 µM.
In turn, `CC1(O)CCC2C3CCC4=CC(=O)CCC4C3CCC21C` (stereo not drawn) yielded an IC50 greater than 20 µM. Further, for the setting “read-out: pIC50 (converted)”, the IC50 is greater than 20 µM.
Turning to `CC(=O)O[C@@H]1CC2(C)C(C(C)=O)CCC2C2CCC3=CC(=O)CCC3(C)C21` (stereo partly drawn), the IC50 is greater than 20 µM. Further, the IC50 (read-out: pIC50 (converted)) was greater than 20 µM.
In turn, `CCC(/C=C/C(C)C1CCC2C3CC=C4CC(O)CCC4(C)C3CCC12C)C(C)C` (stereo not drawn) gave an IC50 greater than 20 µM. For the same compound, the IC50 (read-out: pIC50 (converted)) was greater than 20 µM.
As to `CC(=O)OC1C([N+]2(C)CCCCC2)CC2C3CC[C@H]4C[C@H](OC(C)=O)C([N+]5(C)CCCCC5)CC4(C)C3CCC21C` (stereo partly drawn), the IC50 was greater than 20 µM. The IC50 (read-out: pIC50 (converted)) is greater than 20 µM.
`CC12CC(=O)C3C(CC[C@H]4CC(O)CCC34C)C1CCC2C(=O)CO` (stereo partly drawn): the IC50 was greater than 20 µM. Besides, the IC50 (read-out: pIC50 (converted)) was greater than 20 µM.
Compound `CC1(C)Oc2ccc(OC(F)(F)F)cc2[C@@H](N2Cc3ccccc3C2=O)C1O` (stereo partly drawn) came in with an IC50 greater than 20 µM. Under “read-out: pIC50 (converted)”, the IC50 was greater than 20 µM.
In the case of `CC(=O)C1CCC2C3CCC4=CC(=O)CCC4(C)C3C(O)CC12C` (stereo not drawn), the IC50 was greater than 20 µM. Besides, the IC50 (read-out: pIC50 (converted)) was greater than 20 µM.
In the case of `COCC(=O)Nc1ccc(/N=C(\C)N(C)C)cc1`, the IC50 is greater than 20 µM. Also, for the setting “read-out: pIC50 (converted)”, the IC50 is greater than 20 µM.
On to `C[C@@H]1NC(=O)CO[C@@H]1c1ccccc1`, for which the IC50 was greater than 20 µM. The IC50 (read-out: pIC50 (converted)) was greater than 20 µM.
Take `CC(=O)O[C@@H]1CCC2C3CCc4cc(O)ccc4C3CCC21C` (stereo partly drawn): the IC50 was greater than 20 µM. The IC50 (read-out: pIC50 (converted)) is greater than 20 µM.
`CN1[C@@H]2C[C@@H](OC(=O)[C@@](O)(CO)c3ccccc3)C[C@H]1[C@@H]1O[C@@H]12`: the IC50 is greater than 20 µM. For the same compound, for the setting “read-out: pIC50 (converted)”, the IC50 was greater than 20 µM.
Compound `Cc1cccc(C)c1NC(=O)NCCCNC(C)C` showed an IC50 greater than 20 µM. Further, the IC50 (read-out: pIC50 (converted)) is greater than 20 µM.
`C=CCNc1nc(NCC=C)nc(N2CCC(NCC(c3ccc(F)cc3)c3ccc(F)cc3)CC2)n1` displayed an IC50 greater than 20 µM. In addition, the IC50 (read-out: pIC50 (converted)) was greater than 20 µM.
